{"source": "patent US10716778B2", "about": "“Use of compounds that are able to increase the serum IGF-1 level for the preparation of a therapeutical composition for treatment of various disease states associated with a reduced IGF-1 serum level in humans and animals” (VEIJLEN N.V., priority 2003, dated 2020)", "key": {"[1]": {"tested_on": "IGF-1", "test": "Plasma IGF-1 level in eight CFS patients treated with the composition (Example 1)", "type": "in vivo, human", "protocol": "Eight patients suffering from severe chronic fatigue syndrome (CFS) were studied over a 5- to 7-month period. In this period, they were treated with a therapeutical composition of the disclosure in the form of a food supplement, which comprised IAA as the active ingredient. All subjects were unable to do their job or to perform very light physical exercise.\nBefore entering the study, the subjects underwent a careful medical examination to exclude any other disease. Blood was assayed for insulin-like growth factor 1 (IGF-1) and its major binding protein IGF-BP3 was sampled at 0, 1, 3 and 5 to 7 months of treatment because the total amount of IGF-1 in serum minus the amount of IGF-BP3 is the amount of free IGF-1. Free IGF-1 is the active serum fraction. Also at 0, 1, 3 and 5 to 7 months, job participation and physical activities were registered and calculated as percentage of normal, before disease pattern.\nEight women varying in age from 25 to 53 years having severe complaints of fatigue that made it impossible to function normally, both at work and in free time. All reported an excessive need for sleep, which was never refreshing even though it was prolonged (more than 12 hours). After excluding all other diseases and infections, they were all diagnosed for CFS.\nBlood samples of 20 ml were taken and liver and kidney functions, the red and white hemogram, IGF-1 and IGF-BP3 determined. The patients took 1000 mg/day (corresponding to 40 mg IAA and 960 mg salt and WPC 70) of the composition of the disclosure for 4 weeks. After this, the dosage was reduced by 250 mg (corresponding to 10 mg IAA) every 2 weeks to 750 mg/day, 500 mg/day 250 mg/day, respectively. […]\nAt the start of the study and at each check-up point, the work participation and physical activity pattern were scored on a scale from 1 to 10 and plotted as the percentage of the patient's normal activities. […] IGF-BP3 was determined by means of an immunoassay (DSL-5600 ACTIVE™, DSL Deutschland GmbH, Germany) having an intra-assay variance of 4.4% and an inter-assay variance of 6.6%. […]"}, "[2]": {"tested_on": "IGF-1", "test": "IGF-1 levels in poor-growing piglets treated with IAA (Example 7)", "type": "in vivo, piglets (Dutch Landrace)", "text": "The trial was done in a well-managed farm with 1000 sows of the Dutch Landrace. Although the farm is well run, the technical performance is not optimal. There were latent problems with mortality and with growth rates of the piglets. There are too many poor-growing piglets, without fully understanding the technical or veterinary reason. There is no clear pathology to be seen on the farm.\nThe farmer selected the poor-growing piglets for this weaning period. The piglets were weaned for two days at the start of the trial. There were three groups: the normal well-growing piglets, which served as a control group; the B group with 78 poor growers that are treated with 12.5 mg/kg/LW (Life Weight) IAA; and the X group with 52 poor growers that are not treated.\nBlood samples for IGF-1 measuring were taken from each group at the beginning of the trial and at the end of the trial. Two pens (13 piglets) of the B and X groups were weighed at the beginning and at the end of the trial. The active ingredient IAA was mixed in dextrose. […] The B group received the treatment five days after the first IGF-1 measuring."}, "[3]": {"tested_on": "IGF-1", "test": "IgF-1 level in type 2 diabetic patients during medication with IAA (Example 4)", "type": "in vivo, human", "text": "Five male type 2 diabetic patients took part in the study. They were all very difficult to regulate. When the study started, the average HbA1c was to be approximately 9.0%. The patients had no other clinical problems. In addition, the IgF-BP3/IgF-1 ratio had to be over 10. The age of the subjects were between 45 years and 75 years with an average of 58. The period of the investigation was 6 months. […] The following parameters were checked: IGF-1 and IGF-PB-3. Also, at the start, safety parameters (liver tests, hematology) were determined. Every 8 weeks, HbA1c was determined.\nAll samples from one subject were analyzed in the same run to avoid intra-assay variability. Quantification of IGF-1 was performed using an immunoradiometric assay (IRMA) (DSL-5600 ACTIVE™, DSL, Germany GmbH, Germany). Intra- and inter-assay variance was: 4.0% and 9.2% and 1.5% for IGF-1. The Hba1c was analyzed on HPLC Menarine HA 81-60.\nThe total work output of every subject was calculated with a 2-way ANOVA for repeated measures and the hormone values were analyzed with the Wilcoxon test. In all cases, a p value of <0.05 was accepted as significant."}}, "note": "Values joined by “and” are separate entries in the source; they are usually repeats but may differ in a detail not shown here. Equal entries are not always repeated."}
{"substance": "indole acetic acid [IAA]", "values": [{"measurement": "plasma IGF-1 level (mean±SD)", "setting": "[1]; after 1 month", "value": "29.5 ± 8.2", "unit": "nmol/L"}, {"measurement": "plasma IGF-1 level (mean±SD)", "setting": "[1]; after 5 months of treatment", "value": "35 ± 10", "unit": "nmol/L"}, {"measurement": "plasma IGF-1 level (mean±SD)", "setting": "[1]; before treatment (baseline)", "value": "18 ± 5", "unit": "nmol/L"}, {"measurement": "IGF-1 level, 2nd measurement", "setting": "[2]; treated group B, individual piglets, after 21 days of 12.5 mg/kg/LW IAA in feed, acetic acid, 12.5 mg/kg", "value": "25.2 nmol/L and 28.9 nmol/L and 25.5 nmol/L and 29.9 nmol/L and 16.9 nmol/L"}, {"measurement": "IGF-1 level, 1st measurement", "setting": "[2]; treated group B, individual piglets, beginning of the trial, before treatment, acetic acid", "value": "3 nmol/L and 2.7 nmol/L and 6.1 nmol/L and 5.3 nmol/L and 5.7 nmol/L"}, {"measurement": "IGF-1 level, 2nd measurement, average", "setting": "[2]; treated group B, average of 5 piglets, after 21 days of treatment, control 23.6, non-treated X 17.2, acetic acid", "value": "25.3 nmol/L and 25.28 nmol/L"}, {"measurement": "IGF-1 level, 1st measurement, average", "setting": "[2]; treated group B, average of 5 piglets, before treatment", "value": 4.56, "unit": "nmol/L"}, {"measurement": "effect on IGF-1 levels in poor-growing piglets", "setting": "[2]; treatment for 14-21 days with 12.5 mg/kg/LW IAA", "value": "effectively restores IGF-1 levels"}, {"measurement": "IgF-1 level, average", "setting": "[3]; Month 0 (start), average of 5 subjects, acetic acid", "value": "10.8 nmol/L and 10.7 nmol/L"}, {"measurement": "IgF-1 level", "setting": "[3]; Month 0 (start), individual subjects, acetic acid", "value": "11.1 nmol/L and 9.6 nmol/L and 10.4 nmol/L and 11.2 nmol/L and 11.3 nmol/L"}, {"measurement": "IgF-1 level, average", "setting": "[3]; Month 1, average of 5 subjects", "value": 11.4, "unit": "nmol/L"}, {"measurement": "IgF-1 level", "setting": "[3]; Month 1, individual subjects, acetic acid", "value": "12.5 nmol/L and 10.1 nmol/L and 10.8 nmol/L and 11.6 nmol/L and 12.0 nmol/L"}, {"measurement": "IgF-1 level, average", "setting": "[3]; Month 2, average of 5 subjects", "value": 12.0, "unit": "nmol/L"}, {"measurement": "IgF-1 level", "setting": "[3]; Month 2, individual subjects, acetic acid", "value": "13.1 nmol/L and 10.6 nmol/L and 11.6 nmol/L and 11.9 nmol/L and 12.6 nmol/L"}, {"measurement": "IgF-1 level, average", "setting": "[3]; Month 3, average of 5 subjects", "value": 12.5, "unit": "nmol/L"}, {"measurement": "IgF-1 level", "setting": "[3]; Month 3, individual subjects, acetic acid", "value": "13.8 nmol/L and 11.1 nmol/L and 12.1 nmol/L and 12.3 nmol/L and 13.0 nmol/L"}, {"measurement": "IgF-1 level, average", "setting": "[3]; Month 4, average of 5 subjects", "value": 13.0, "unit": "nmol/L"}, {"measurement": "IgF-1 level", "setting": "[3]; Month 4, individual subjects, acetic acid", "value": "14.3 nmol/L and 11.8 nmol/L and 12.6 nmol/L and 12.8 nmol/L and 13.5 nmol/L"}, {"measurement": "IgF-1 level, average", "setting": "[3]; Month 5, average of 5 subjects", "value": 13.5, "unit": "nmol/L"}, {"measurement": "IgF-1 level", "setting": "[3]; Month 5, individual subjects, acetic acid", "value": "14.9 nmol/l and 12.1 nmol/l and 13.3 nmol/l (2×) and 13.9 nmol/l"}, {"measurement": "IgF-1 level, average", "setting": "[3]; Month 6, average of 5 subjects", "value": 14.1, "unit": "nmol/L"}, {"measurement": "IgF-1 level", "setting": "[3]; Month 6, individual subjects, acetic acid", "value": "15.2 nmol/L and 12.9 nmol/L and 13.9 nmol/L and 14.4 nmol/L and 14.3 nmol/L"}]}
